Reference: US20260041640A1 (INCYCLIX BIO, LLC, priority 2023, published 2026)
≈ marks a conversion by molar mass, not a printed value. Like-named read-outs stand apart in the source and are kept apart here.

Key:
[1] = Plasma protein binding, dog; type: in vitro ADME
Excerpt: (§1) Additionally, the whole blood-to-plasma ratio (KWB/P) in humans is 6.20, which also exceeds the other species tested (Table 7).

[2] = Aqueous solubility of INX-315; type: physicochemical
[3] = Toxicity and toxicokinetics studies, rat; type: in vivo, Sprague Dawley rats
Experimental: Nominal dose values and sampling times were used for calculations. Any concentration reported as BLQ (LLOQ<1.0 ng/mL) was set equal to zero. Toxicokinetic analyses included Cmax, Tmax, AUC0-24, t1/2, RA Cmax, and RA AUC0-24.
Following this, human dose exposure was simulated using a combined whole blood and plasma compartment PK model using allometry and whole blood parameter estimates for the absorption rate constants and bioavailability per animal species. Absolute dose administration was used for modeling. V1, CL, V2, and Q parameters were extrapolated to human using allometric scaling. CL, Q by exponent equaled 0.818. V1, V2 by exponent equaled 1.03. Human body weight was set to 75 kg. Absorption rate constant (KA) was in reasonable ranges in mouse, rat, and dog, with values of 0.44, 0.53, and 0.18 (1/hr), respectively.
(§2) All INX-315 tablets were taken at approximately the same time(s) each day.

[4] = Organic solubility of INX-315 by visual inspection; type: physicochemical; design: key to Soluble at 4 wt % / Soluble at 2 wt % / Soluble at 1 wt % / Soluble at 0.5 wt % / Soluble at 0.4 wt % / Soluble at 0.25 wt %: ✓, soluble; X, insoluble
[5] = Plasma protein binding, human; type: in vitro ADME
Excerpt: as §1

CDK2/cyclin E = CDK2/cyclin E (Homo sapiens, UniProt P24941); conditions: intracellular; read-out: Nanobret IC50 CDK2/cyclin E; cited from earlier work
[6] = Toxicity and toxicokinetics studies, dog; type: in vivo, beagle dogs
Excerpt: Following this, human dose exposure was simulated using a combined whole blood and plasma compartment PK model using allometry and whole blood parameter estimates for the absorption rate constants and bioavailability per animal species. Absolute dose administration was used for modeling. V1, CL, V2, and Q parameters were extrapolated to human using allometric scaling. […] Human body weight was set to 75 kg.

Ovcar-3 = conditions: BLU-222: based on Ovcar-3 cell cycle data (maximum G1 arrest); read-out: Cellular IC50; cited from earlier work
[7] = First-in-human clinical study: safety and tolerability; type: in vivo
Experimental: as §2
Cohort 1 enrollment of 6 subjects dosed at 100 mg oral QD was completed in October of 2023.

[8] = Plasma protein binding, rat; type: in vitro ADME
Excerpt: as §1

SMILES: NS(=O)(=O)c1ccc(Nc2ncc3cc4n(c3n2)C2(CCCCC2)C(=O)NN4)cc1 [INX-315]
- fraction unbound [1]: 0.04
- solubility ([2]; 0.01 N HCl, simulated gastric fluid, 0.01N HCl, read-out: Dissolved Drug Solubility): 269 ± 92 µg/mL (≈ 629 µM)
- solubility ([2]; 50 mM Na acetate, aqueous buffer, 50 mM Na Acetate, read-out: Total Drug Solubility): 19 ± 7 µg/mL (≈ 44.4 µM)
- solubility ([2]; 0.224% SIF in PBS, fassif, 0.224% SIF in PBS, read-out: Dissolved Drug Solubility): 5.3 ± 0.4 µg/mL (≈ 12.4 µM)
- solubility ([2]; 0.224% SIF in PBS, fassif, 0.224% SIF in PBS, read-out: Total Drug Solubility): 6.1 ± 0.4 µg/mL (≈ 14.3 µM)
- solubility ([2]; 0.5% SIF in PBS, fassgf or other biorelevant, 0.5% SIF in PBS, read-out: Dissolved Drug Solubility): 11 ± 1 µg/mL (≈ 25.7 µM)
- solubility ([2]; 0.5% SIF in PBS, fassgf or other biorelevant, 0.5% SIF in PBS, read-out: Total Drug Solubility): 15 ± 0.2 µg/mL (≈ 35.1 µM)
- solubility ([2]; 0.5% Tween-80 in PBS, aqueous with cosolvent or surfactant or cyclodextrin, 0.5% Tween-80 in PBS, read-out: Dissolved Drug Solubility): 59 ± 8 µg/mL (≈ 138 µM)
- solubility ([2]; 0.5% Tween-80 in PBS, aqueous with cosolvent or surfactant or cyclodextrin, 0.5% Tween-80 in PBS, read-out: Total Drug Solubility): 55 ± 1 µg/mL (≈ 129 µM)
- solubility ([2]; 1% SIF in PBS, fassgf or other biorelevant, 1% SIF in PBS, read-out: Dissolved Drug Solubility): 16.3 ± 0.1 µg/mL (≈ 38.1 µM)
- solubility ([2]; 1% SIF in PBS, fassgf or other biorelevant, 1% SIF in PBS, read-out: Total Drug Solubility): 16.4 ± 0.1 µg/mL (≈ 38.4 µM)
- solubility ([2]; 1% SLS in water, aqueous with cosolvent or surfactant or cyclodextrin, 1% SLS in H2O, read-out: Dissolved Drug Solubility): 40 ± 1 µg/mL (≈ 93.6 µM)
- solubility ([2]; 5% TPGS in PBS, aqueous with cosolvent or surfactant or cyclodextrin, 5% TPGS in PBS, read-out: Dissolved Drug Solubility): 313 ± 21 µg/mL (≈ 732 µM)
- solubility ([2]; 5% TPGS in PBS, aqueous with cosolvent or surfactant or cyclodextrin, 5% TPGS in PBS, read-out: Total Drug Solubility): 305 ± 10 µg/mL (≈ 713 µM)
- solubility ([2]; PBS/Blank FaSSIF, aqueous buffer, PBS/Blank FaSSIF, read-out: Total Drug Solubility): 17 ± 2 µg/mL (≈ 39.8 µM)
- BCS classification ([2]; high permeability, low solubility): BCS-2
- solubility ([2]; water, H2O, read-out: Total Drug Solubility): 61 ± 14 µg/mL (≈ 143 µM)
- bioavailability ([3]; both sexes, Sprague Dawley, rat, in vivo, po): 8%
- Absorption rate constant (KA) ([3]; both, Sprague Dawley, rat, in vivo): 0.53 h⁻¹
- human equivalent dose (HED) of the no observed adverse effect level (NOAEL) ([3]; rats): 9730 mg/day
- safety margin of 100 mg QD starting dose vs HED of NOAEL ([3]; rats): 97 fold
- Soluble at 0.25 wt % ([4]; 1:9 DMSO:H2O): X
- Soluble at 0.4 wt % ([4]; 1:9 DMSO:H2O): X
- Soluble at 0.5 wt % ([4]; 1:9 DMSO:H2O): X
- Soluble at 1 wt % ([4]; 1:9 DMSO:H2O): X
- Soluble at 2 wt % ([4]; 1:9 DMSO:H2O): X
- Soluble at 4 wt % ([4]; 1:9 DMSO:H2O): X
- Soluble at 0.25 wt % ([4]; 3:1 DCM:MeOH): X
- Soluble at 0.4 wt % ([4]; 3:1 DCM:MeOH): X
- Soluble at 0.5 wt % ([4]; 3:1 DCM:MeOH): X
- Soluble at 1 wt % ([4]; 3:1 DCM:MeOH): X
- Soluble at 2 wt % ([4]; 3:1 DCM:MeOH): X
- Soluble at 4 wt % ([4]; 3:1 DCM:MeOH): X
- Soluble at 0.25 wt % ([4]; 4:1 ACN:H2O): X
- Soluble at 0.4 wt % ([4]; 4:1 ACN:H2O): X
- Soluble at 0.5 wt % ([4]; 4:1 ACN:H2O): X
- Soluble at 1 wt % ([4]; 4:1 ACN:H2O): X
- Soluble at 2 wt % ([4]; 4:1 ACN:H2O): X
- Soluble at 4 wt % ([4]; 4:1 ACN:H2O): X
- Soluble at 0.25 wt % ([4]; 4:1 THF:H2O): ✓
- Soluble at 0.4 wt % ([4]; 4:1 THF:H2O): ✓
- Soluble at 0.5 wt % ([4]; 4:1 THF:H2O): ✓
- Soluble at 1 wt % ([4]; 4:1 THF:H2O): ✓
- Soluble at 2 wt % ([4]; 4:1 THF:H2O): ✓
- Soluble at 4 wt % ([4]; 4:1 THF:H2O): ✓
- Soluble at 0.25 wt % ([4]; 5:1 DCM:H2O): X
- Soluble at 0.4 wt % ([4]; 5:1 DCM:H2O): X
- Soluble at 0.5 wt % ([4]; 5:1 DCM:H2O): X
- Soluble at 1 wt % ([4]; 5:1 DCM:H2O): X
- Soluble at 2 wt % ([4]; 5:1 DCM:H2O): X
- Soluble at 4 wt % ([4]; 5:1 DCM:H2O): X
- Soluble at 0.25 wt % ([4]; 8:2 Acetone:H2O): ✓
- Soluble at 0.4 wt % ([4]; 8:2 Acetone:H2O): ✓
- Soluble at 0.5 wt % ([4]; 8:2 Acetone:H2O): X
- Soluble at 1 wt % ([4]; 8:2 Acetone:H2O): X
- Soluble at 2 wt % ([4]; 8:2 Acetone:H2O): X
- Soluble at 4 wt % ([4]; 8:2 Acetone:H2O): X
- Organic solubility (soluble up to) ([4]; 9:1 ACN:H2O): up to 0.5 wt %
- Soluble at 0.25 wt % ([4]; 9:1 ACN:H2O): ✓
- Soluble at 0.4 wt % ([4]; 9:1 ACN:H2O): ✓
- Soluble at 0.5 wt % ([4]; 9:1 ACN:H2O): ✓
- Soluble at 1 wt % ([4]; 9:1 ACN:H2O): X
- Soluble at 2 wt % ([4]; 9:1 ACN:H2O): X
- Soluble at 4 wt % ([4]; 9:1 ACN:H2O): X
- Soluble at 0.25 wt % ([4]; 9:1 Acetone:H2O): ✓
- Soluble at 0.4 wt % ([4]; 9:1 Acetone:H2O): ✓
- Soluble at 0.5 wt % ([4]; 9:1 Acetone:H2O): X
- Soluble at 1 wt % ([4]; 9:1 Acetone:H2O): X
- Soluble at 2 wt % ([4]; 9:1 Acetone:H2O): X
- Soluble at 4 wt % ([4]; 9:1 Acetone:H2O): X
- Organic solubility (soluble up to) ([4]; Acetone): up to 0.5 wt %
- Soluble at 0.25 wt % ([4]; Acetone): ✓
- Soluble at 0.4 wt % ([4]; Acetone): ✓
- Soluble at 0.5 wt % ([4]; Acetone): ✓
- Soluble at 1 wt % ([4]; Acetone): X
- Soluble at 2 wt % ([4]; Acetone): X
- Soluble at 4 wt % ([4]; Acetone): X
- Soluble at 0.25 wt % ([4]; Methanol): ✓
- Soluble at 0.4 wt % ([4]; Methanol): X
- Soluble at 0.5 wt % ([4]; Methanol): X
- Soluble at 1 wt % ([4]; Methanol): X
- Soluble at 2 wt % ([4]; Methanol): X
- Soluble at 4 wt % ([4]; Methanol): X
- fraction unbound [5]: 0.056
- IC50 (CDK2/cyclin E): 2 nM
- Absorption rate constant (KA) ([6]; beagle, dog, in vivo): 0.18 h⁻¹
- HED of the highest nonseverely toxic dose (HNSTD) ([6]; dogs): 16,216 mg/day
- safety margin of 100 mg QD starting dose vs HED of HNSTD ([6]; dogs): 160 fold
- IC50 (Ovcar-3): < 100 nM
- safety issues ([7]; 200 mg QD): no new safety issues
- DLTs ([7]; Cohort 1, 100 mg QD): No DLTs
- changes in complete blood counts or clinical chemistries ([7]; Cohort 1, 100 mg QD): No significant changes
- tolerability ([7]; Cohort 1, 100 mg QD): well tolerated
- fraction unbound [8]: 0.018
